Experimental data: US4288609A, “Quaternary ammonium derivatives of adamantane with antimicrobic activity” (priority 1976, dated 1981)

How the values were obtained:
[1] = system: Streptococ. Henclyt. 0203; test: M.I.C. in vitro, gram+ Streptococ. Henclyt. (Table 1); format: cell-based
Description: (§1) The method for evaluating the activity in vitro against bacteria, fungi and protozoa consists in introducing calculated quantities of the substance, the activity of which it is desired to test, into culture media already inoculated with a predetermined number of test germs.
(§2) After 24 or 48 hours of incubation at 30° or 37° C., according to the micro-organism being tested, it is possible to evaluate the growth of the same in the culture broth; in this manner the minimum concentration (M.I.C.) which inhibits the growth of the micro-organisms in vitro is determined.
(§3) In table 1 there are recorded the M.I.C. values in γ/ml of the products subject of the present invention, against certain gram+ and gram- bacterial strains, some of which are pathogenic towards human beings.

mice = test: Acute oral toxicity in mice (Table 4); conditions: oral, mice, 14 days
Description: The substances were administered orally to groups of 10 female mice CF1 of average weight of about 20 grams, in aqueous solution and in such way that the total volume administered would be in each case 1 ml/100 g of weight.

[2] = system: Trich. Vaginalis ISM 66/22; test: MIC protozoa, Trichomonas vaginalis (Table 2); format: cell-based; conditions: +10% serum (head); Kupferberg Trichomonas broth with 5% of horse serum
Description: as §1, §2
(§4) Inoculation with Trichomonas vaginalis and Trichomonas foetus, obtained from cultures transplanted every other day to make them lively, was effected in a ratio of 3.5% of the volume of medium used.
(§5) For the fungi Sabourand broth was used as a culture medium, whilst for the protozoa Kupferberg Trichomonas broth with 5% of horse serum was used.

[3] = system: Candida Pseudotrop. ATCC 2512; test: MIC yeasts, Candida pseudotropicalis (Table 2); format: cell-based; conditions: Sabourand broth
Description: as §1, §2
(§6) Inoculation with Candida albicans or Candida pseudotropicalis was made by diluting cultures grown for 24 h at 30° C. (cellular density inoculated 10^3 /ml).
as §5

Diplococcus Pneum. ISM = test: M.I.C. in vitro, gram+ Diplococcus Pneum. (Table 1); format: cell-based
Description: as §1, §2, §3

[4] = system: Nicrosporum Canis ATCC 11621; test: MIC mildews, Microsporum canis (Table 2); format: cell-based; conditions: Sabourand broth
Description: as §1, §2
(§7) Inoculation with Trichophyton mentagrophytes and Microsporum canis was effected in a ratio of 1% of the volume of medium used.
as §5

Klens. Pneum. ISM = test: M.I.C. in vitro, gram- Klens. Pneum. (Table 1); format: cell-based
Description: as §1, §2, §3

Trich. Foetus ISM 66/23 = test: MIC protozoa, Trichomonas foetus (Table 2); format: cell-based; conditions: +10% serum (head); Kupferberg Trichomonas broth with 5% of horse serum
Description: as §1, §2, §4, §5

Esch. Coli. SKF 12140 = test: M.I.C. in vitro, gram- Esch. Coli (Table 1); format: cell-based, Escherichia Coli
Description: as §1, §2, §3

Staph.Aureus Tour = test: M.I.C. in vitro, gram+ Staph. Aureus (Table 1); format: cell-based, Staphylococcus Aureus
Description: as §1, §2, §3

Pseudom.Aer. ATCC 1014 = test: M.I.C. in vitro, gram- Pseudom. Aer. (Table 1); format: cell-based, Pseudomonas Aeruginosa
Description: as §1, §2, §3

Proteus Vulc. ATCC 881 = test: M.I.C. in vitro, gram- Proteus Vulc. (Table 1); format: cell-based
Description: as §1, §2, §3

[5] = system: Trych. Mentagr. 1st.Pastuer; test: MIC mildews, Trichophyton mentagrophytes (Table 2); format: cell-based; conditions: Sabourand broth
Description: as §1, §2, §7, §5

Candida Albic. SKF 2270 = test: MIC yeasts, Candida albicans (Table 2); format: cell-based; conditions: Sabourand broth
Description: as §1, §2, §6, §5

Row | Compound | M.I.C. ([1]; +10% serum) | M.I.C. ([1]; without serum) | MIC [2] | MIC ([3]; +10% serum) | MIC ([3]; without serum) | M.I.C. (Diplococcus Pneum. ISM; +10% serum) | M.I.C. (Diplococcus Pneum. ISM; without serum) | MIC ([4]; +10% serum) | MIC ([4]; without serum) | M.I.C. (Klens. Pneum. ISM; +10% serum) | M.I.C. (Klens. Pneum. ISM; without serum) | MIC (Trich. Foetus ISM 66/23) | M.I.C. (Esch. Coli. SKF 12140; +10% serum) | M.I.C. (Esch. Coli. SKF 12140; without serum) | M.I.C. (Staph.Aureus Tour; +10% serum) | M.I.C. (Staph.Aureus Tour; without serum) | M.I.C. (Pseudom.Aer. ATCC 1014; +10% serum) | M.I.C. (Pseudom.Aer. ATCC 1014; without serum) | M.I.C. (Proteus Vulc. ATCC 881; +10% serum) | M.I.C. (Proteus Vulc. ATCC 881; without serum) | other results
1 | CCCCCCCCCC[N+](CC)(CC)CCNC(=O)C12CC3CC(CC(C3)C1)C2 [Example 10, n-Decyl-diethyl-(1-adamantane-carbonylamido)-ethyl-ammonium chloride] | 5 µg/mL | 0.5 µg/mL | 10 mg/L | 50 mg/L | 2 mg/L | 10 µg/mL | 2 µg/mL | 50 mg/L | 0.5 mg/L | 100 µg/mL | 10 µg/mL | 5 mg/L | 100 µg/mL | 10 µg/mL | 10 µg/mL | 0.2 µg/mL | > 100 µg/mL | 50 µg/mL | 100 µg/mL | 10 µg/mL | LD50 (mice; 20160 min): 1050 mg/kg; MIC ([5]; +10% serum): 50 mg/L; MIC ([5]; without serum): 0.5 mg/L; MIC (Candida Albic. SKF 2270; +10% serum): 50 mg/L; MIC (Candida Albic. SKF 2270; without serum): 0.5 mg/L
2 | CCCCCCCCCC[N+](C)(C)CCOC(=O)C12CC3CC(CC(C3)C1)C2 (single isomer, unassigned) [Example 2, n-Decyl-dimethyl-(1-adamantane-carboxy)-ethyl-ammonium chloride] | 1 µg/mL | 0.2 µg/mL | 20 mg/L | 50 mg/L | 0.5 mg/L | 10 µg/mL | 2 µg/mL | 20 mg/L | 0.5 mg/L | 100 µg/mL | 20 µg/mL | 10 mg/L | 100 µg/mL | 10 µg/mL | 5 µg/mL | 0.2 µg/mL | 100 µg/mL | 50 µg/mL | 100 µg/mL | 20 µg/mL | LD50 (mice): 1020 mg/kg; MIC ([5]; +10% serum): 20 mg/L; MIC ([5]; without serum): 0.5 mg/L; MIC (Candida Albic. SKF 2270; +10% serum): 50 mg/L; MIC (Candida Albic. SKF 2270; without serum): 5 mg/L
